Assay results: article PMC7497641, “Neurotropic activity and safety of methylene-cycloalkylacetate (MCA) derivative 3-(3-allyl-2-methylenecyclohexyl) propanoic acid” (ACS Chemical Neuroscience, 2020)

Assays:
[1] = target: T1, Dopamine Receptor D1 (DRD1) (Homo sapiens, UniProt P21728); assay: SAFETYscan GPCR cAMP; assay type: cell-based
T1 construct: host or cells: cAMP Hunter cell lines

[2] = target: T2, Lymphocyte Cell-Specific Protein-Tyrosine Kinase (Src family) (LCK) (Homo sapiens, UniProt P06239); assay: SAFETYscan KINOMEscan binding assay; settings: Inhibitor
T2 construct: host or cells: E. coli BL21-derived host (T7 phage) or HEK-293
T2 sequence (P06239 whole entry): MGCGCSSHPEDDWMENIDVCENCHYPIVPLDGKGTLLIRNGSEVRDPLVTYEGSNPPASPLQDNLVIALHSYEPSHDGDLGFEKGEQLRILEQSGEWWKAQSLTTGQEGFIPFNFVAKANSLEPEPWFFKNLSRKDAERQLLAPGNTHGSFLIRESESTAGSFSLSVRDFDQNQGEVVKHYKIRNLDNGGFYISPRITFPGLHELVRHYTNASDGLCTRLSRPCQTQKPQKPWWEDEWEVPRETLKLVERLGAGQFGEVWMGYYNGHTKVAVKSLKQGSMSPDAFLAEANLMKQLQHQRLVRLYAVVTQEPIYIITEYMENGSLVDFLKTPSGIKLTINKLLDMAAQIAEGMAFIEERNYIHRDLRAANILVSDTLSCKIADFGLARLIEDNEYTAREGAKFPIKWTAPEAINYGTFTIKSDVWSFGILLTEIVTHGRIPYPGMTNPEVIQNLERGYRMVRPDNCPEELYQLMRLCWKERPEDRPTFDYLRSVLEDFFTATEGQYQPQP

[3] = target: T3, Acetylcholinesterase (AChE) (Homo sapiens, UniProt P22303); assay: SAFETYscan Enzymatic assay; assay type: biochemical
T3 construct: purchased R&D Systems
T3 sequence (P22303 32-614): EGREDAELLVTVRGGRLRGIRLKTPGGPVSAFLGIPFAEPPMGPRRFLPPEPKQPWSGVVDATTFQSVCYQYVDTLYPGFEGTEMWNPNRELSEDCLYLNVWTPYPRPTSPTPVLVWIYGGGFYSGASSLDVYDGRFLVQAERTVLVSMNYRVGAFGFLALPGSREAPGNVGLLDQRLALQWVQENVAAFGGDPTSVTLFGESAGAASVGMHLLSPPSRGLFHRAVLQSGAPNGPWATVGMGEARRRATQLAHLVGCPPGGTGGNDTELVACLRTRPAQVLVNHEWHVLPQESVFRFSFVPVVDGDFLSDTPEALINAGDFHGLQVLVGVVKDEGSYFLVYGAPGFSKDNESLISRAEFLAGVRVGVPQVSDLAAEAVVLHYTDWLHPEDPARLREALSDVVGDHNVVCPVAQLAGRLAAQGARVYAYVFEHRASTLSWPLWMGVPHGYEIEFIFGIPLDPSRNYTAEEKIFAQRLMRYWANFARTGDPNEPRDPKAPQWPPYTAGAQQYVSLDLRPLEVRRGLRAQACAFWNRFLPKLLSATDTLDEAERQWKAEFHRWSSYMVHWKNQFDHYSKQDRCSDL

[4] = target: T4, Serotonin transporter (SERT) (Homo sapiens, UniProt P31645); assay: cell-based; settings: Blocker
T4 construct: host or cells: unnamed DiscoverX cell line
T4 sequence (P31645 whole entry): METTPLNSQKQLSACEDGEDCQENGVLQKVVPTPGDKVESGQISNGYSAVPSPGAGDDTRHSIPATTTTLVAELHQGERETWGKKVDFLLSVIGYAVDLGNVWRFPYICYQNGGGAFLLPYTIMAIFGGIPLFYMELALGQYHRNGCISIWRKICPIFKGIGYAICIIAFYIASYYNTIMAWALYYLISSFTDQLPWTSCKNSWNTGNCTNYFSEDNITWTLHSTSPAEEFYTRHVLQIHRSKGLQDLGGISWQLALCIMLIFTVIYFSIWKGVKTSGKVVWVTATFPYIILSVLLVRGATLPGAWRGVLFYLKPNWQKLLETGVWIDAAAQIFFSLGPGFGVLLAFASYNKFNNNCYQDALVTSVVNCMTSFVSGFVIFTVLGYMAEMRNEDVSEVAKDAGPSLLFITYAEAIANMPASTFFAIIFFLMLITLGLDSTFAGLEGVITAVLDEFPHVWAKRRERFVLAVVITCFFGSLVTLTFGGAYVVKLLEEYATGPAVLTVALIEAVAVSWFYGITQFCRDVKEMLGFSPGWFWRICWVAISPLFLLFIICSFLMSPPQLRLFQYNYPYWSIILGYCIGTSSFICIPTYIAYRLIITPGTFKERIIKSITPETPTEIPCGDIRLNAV

neurons = assay: Cytotoxicity to neurons; assay type: cell-based; settings: 10 μM
From the text: “Off-target” activity refers to all other targets for which a molecule has affinity with the outcome of activation, blockade, or modulation, resulting in a functional effect. In many cases, the off-target activity of the molecule can be sub-clinical and not pose a concern. On the other hand, the off-target activity may result in side effects of the active agent that range from a minor nuisance to a severe adverse event, resulting with drug withdrawal.[33] Therefore, in vitro pharmacological profiling is increasingly being used earlier in the drug discovery process to identify undesirable off-target activity profiles that could hinder or halt the development of a candidate drug.[34] With this background, assessing the specificity of HU-MCA-13 early in its development using highly relevant and predictive functional assays, which allow more informed decisions about its safety, ultimately lead to the development of an effective neurotropic drug. […] Cell death was evaluated by morphological appearance of the cells and release of LDH into the medium, in the absence and presence of different concentrations of synthetic compounds as previously described.[52]

[5] = 10 μM, read-out: MCA-13 Max. Responce
[6] = read-out: RC50 (the source's name)

T1 sequence (P21728 whole entry): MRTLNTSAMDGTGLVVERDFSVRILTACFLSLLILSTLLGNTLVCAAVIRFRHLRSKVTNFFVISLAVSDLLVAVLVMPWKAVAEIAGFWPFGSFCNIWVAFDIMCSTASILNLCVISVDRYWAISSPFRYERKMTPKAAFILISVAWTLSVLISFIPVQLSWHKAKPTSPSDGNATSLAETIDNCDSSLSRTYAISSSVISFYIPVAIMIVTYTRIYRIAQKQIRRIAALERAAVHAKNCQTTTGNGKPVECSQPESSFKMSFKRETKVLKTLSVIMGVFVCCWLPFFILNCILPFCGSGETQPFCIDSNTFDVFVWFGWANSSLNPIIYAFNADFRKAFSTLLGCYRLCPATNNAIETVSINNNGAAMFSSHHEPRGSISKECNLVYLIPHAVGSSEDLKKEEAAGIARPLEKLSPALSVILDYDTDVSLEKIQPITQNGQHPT

C=CCC1CCCC(CCC(=O)O)C1=C (stereo not drawn) [HU-MCA-13, 3-(3-allyl-2-methylenecyclohexyl)propanoic acid]
EC50 [1]: > 10 µM
IC50 [1]: > 10 µM
inhibition at 10 µM [2, 5]: 12.8%
IC50 [2, 6]: > 10 µM
IC50 [3]: > 10 µM
inhibition at 10 µM ([3]; 10 μM, Inhibitor, Enzymatic, read-out: MCA-13 Max. Responce): 4.27%
inhibition at 10 µM [4, 5]: 15.4%
IC50 [4, 6]: > 10 µM
toxicity to neurons (neurons): not toxic
